According to patent EP4667463A1, “DOMIDE MOLECULAR GLUE DERIVATIVE AND USE THEREOF” (CSPC Megalith Biopharmaceutical Co., Ltd., priority 2023, dated 2024):
Read-outs that look alike come from different tables or passages of the source.

Legend:
SNU-5 = experiment: Activity in cell strains with high expression of efflux pump proteins, cell viability assay; format: cell-based; details: Homo sapiens, SNU-5 cells, 96 h
Method: (§1) Three types of cells used for evaluating the activity of the compounds of the present disclosure against a cell strain with high expression of efflux pump proteins were all purchased from Nanjing Cobioer Biosciences Co., Ltd., and all the cells were derived from ATCC (American Type Culture Collection). Various tumor cells were cultured until the cell confluency reached 80%-90%, with cell viability above 90% as determined by trypan blue exclusion. Then, the cells were plated. Specifically, after cell density optimization, 75 µL of each of three cell suspensions of SNU-5, HCT-15, and AsPc-1 cells (3000 cells/well) was inoculated into a BeyoGold™ ultra-low attachment black clear-bottom 96-well plate (Cat. No.: FULA965-24pcs), and the plate was incubated overnight in a cell incubator at 37 °C with carbon dioxide. The next day, after the cells adhered to the wall, 75 µL of the compounds diluted with the corresponding culture media were added. Specifically, the compounds were serially diluted at a 5-fold gradient starting from the highest concentration of 1 µM, with a final DMSO concentration of 1‰, and the test compounds were then added to the cell culture plate. The plate was incubated in an incubator at 37 °C with 5% carbon dioxide for 96 h. Before measurement, the CellTiter-Lumi™ luminescent cell viability assay reagent was equilibrated to room temperature in the dark. Then, 50 µL of the CellTiter-Lumi™ (Cat. No.: C0065XL) cell viability assay reagent was added to each well of the 96-well plate. The plate was shaken in the dark on a shaker at 300 rpm for 10 min to ensure complete cell lysis. After the reaction was completed, the chemiluminescence intensity was measured on a multi-mode microplate reader. The cell viability inhibition rate was determined according to the chemiluminescence intensity. Then, a cell viability curve was generated by Graphpad Prism 8.0, and the IC50 values were calculated. Table 3. Activity of the compounds of the present disclosure in cell strains with high expression of efflux pump proteins (IC50 value)

HCT-15 = experiment: as above; format: cell-based; details: Homo sapiens, HCT-15 cells, 96 h
Method: as §1

AsPc-1 = experiment: as above; format: cell-based; details: Homo sapiens, ASPC1, AsPc-1 cells, 96 h
Method: as §1

NCI-H82 = experiment: In vitro anti-tumor activity of molecular glue compounds, CellTiter-Lumi cell viability assay; format: cell-based; details: Homo sapiens; NCI-H82 cells, 96 h incubation; read-out: Cell inhibitory activity (IC50 values) NCI-H82
Method: (§2) Different tumor cells were all commercially available and used for evaluating the anti-tumor inhibitory activity of the compounds of the present disclosure. Various tumor cells were cultured until the cell confluency reached 80%-90%, with cell viability above 90% as determined by trypan blue exclusion. Then, the cells were plated. Specifically, after cell density optimization, 100 µL of each of the cell suspensions of HL-60 and SK-BR-3 cells (cell density: 3000 cells/well), Romas cells (cell density: 6000 cells/well), NCI-H929 cells (cell density: 4000 cells/well), and NCI-H82 cells (cell density: 5000 cells/well) was plated in a BeyoGold™ ultra-low attachment black clear-bottom 96-well plate (Cat. No.: FULA965-24pcs), and the plate was incubated overnight. The next day, after the adherent cells were adhered to the wall and suspension cells requiring aggregation were aggregated, 50 µL of culture medium was aspirated from each well of the 96-well plate. Then, the compounds diluted with the corresponding culture media were added. Specifically, the compounds were serially diluted at a 5-fold gradient starting from the highest concentration of 1 µM, with a final DMSO concentration of 1%o, and the test compounds were then added to the cell culture plate. The plate was incubated in an incubator at 37 °C with 5% carbon dioxide for 96 h. Before measurement, the CellTiter-Lumi™ luminescent cell viability assay reagent was equilibrated to room temperature in the dark. Then, 50 µL of the CellTiter-Lumi™ (Cat. No.: C0065XL) cell viability assay reagent was added to each well of the 96-well plate. The plate was shaken in the dark on a shaker at 300 rpm for 10 min to ensure complete cell lysis. After the reaction was completed, the luminescence was measured on a multi-mode microplate reader. The cell inhibition rate was determined according to the luminescence. Then, a cell viability curve was generated by Graphpad Prism 8.0, and the IC50 values were calculated. The compounds of the present disclosure were tested for activity by the method described above. Table 1. Cell inhibitory activity (IC50 values)

SK-BR-3 = experiment: as above; format: cell-based; details: Homo sapiens, SK-BR-3 cells
Method: as §2

Romas = experiment: as above; format: cell-based; details: Romas cells, 96 h incubation; read-out: Cell inhibitory activity (IC50 values) Romas
Method: as §2

NCI-H929 = experiment: as above; format: cell-based; details: Homo sapiens; NCI-H929 cells, 96 h incubation; read-out: Cell inhibitory activity (IC50 values) NCI-H929
Method: as §2

HL-60 = experiment: as above; format: cell-based; details: Homo sapiens; HL-60 cells, 96 h incubation; read-out: Cell inhibitory activity (IC50 values) HL-60
Method: as §2

GSPT1 protein = biological target: T1, GSPT1 protein (Homo sapiens, UniProt P15170+Q96SW2); experiment: GSPT1 protein degradation, Nano-Glo HiBiT assay in HiBiT-GSPT1 HEK293T cells; format: cell-based; details: 24 h
T1 construct: An HiBiT protein tag was added to the N-terminus of the endogenous GSPT1 protein of HEK293T cells by CRISPR gene editing technology; endogenous in cells; host or cells: HEK293T (CRISPR knock-in HiBiT-GSPT1 cell strain)
T1 sequence (P15170 whole entry): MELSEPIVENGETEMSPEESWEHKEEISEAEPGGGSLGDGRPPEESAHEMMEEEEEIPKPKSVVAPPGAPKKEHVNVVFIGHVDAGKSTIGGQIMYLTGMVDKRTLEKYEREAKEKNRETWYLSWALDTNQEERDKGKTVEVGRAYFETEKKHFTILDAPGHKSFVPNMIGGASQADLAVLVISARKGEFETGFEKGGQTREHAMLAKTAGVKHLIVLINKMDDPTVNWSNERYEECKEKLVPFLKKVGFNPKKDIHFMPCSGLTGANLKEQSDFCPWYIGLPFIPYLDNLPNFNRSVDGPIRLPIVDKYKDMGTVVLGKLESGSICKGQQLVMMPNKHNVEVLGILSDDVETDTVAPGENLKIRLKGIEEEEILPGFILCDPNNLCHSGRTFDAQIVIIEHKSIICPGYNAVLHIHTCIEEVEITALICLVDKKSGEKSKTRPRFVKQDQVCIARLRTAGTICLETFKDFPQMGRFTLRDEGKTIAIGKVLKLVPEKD
T1 sequence (Q96SW2 whole entry): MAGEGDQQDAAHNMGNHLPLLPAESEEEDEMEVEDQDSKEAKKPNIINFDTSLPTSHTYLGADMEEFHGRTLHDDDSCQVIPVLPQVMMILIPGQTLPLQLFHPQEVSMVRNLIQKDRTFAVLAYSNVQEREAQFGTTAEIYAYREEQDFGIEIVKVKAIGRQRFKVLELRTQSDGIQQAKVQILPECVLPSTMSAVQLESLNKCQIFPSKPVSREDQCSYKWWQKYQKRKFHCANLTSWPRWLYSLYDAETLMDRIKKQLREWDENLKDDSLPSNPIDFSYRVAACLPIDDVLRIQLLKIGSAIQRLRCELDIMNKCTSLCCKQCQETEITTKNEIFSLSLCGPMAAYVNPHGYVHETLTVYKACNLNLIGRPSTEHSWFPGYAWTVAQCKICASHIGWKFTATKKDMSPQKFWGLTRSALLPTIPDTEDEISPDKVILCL
T1 sequence (Q16531 whole entry partner): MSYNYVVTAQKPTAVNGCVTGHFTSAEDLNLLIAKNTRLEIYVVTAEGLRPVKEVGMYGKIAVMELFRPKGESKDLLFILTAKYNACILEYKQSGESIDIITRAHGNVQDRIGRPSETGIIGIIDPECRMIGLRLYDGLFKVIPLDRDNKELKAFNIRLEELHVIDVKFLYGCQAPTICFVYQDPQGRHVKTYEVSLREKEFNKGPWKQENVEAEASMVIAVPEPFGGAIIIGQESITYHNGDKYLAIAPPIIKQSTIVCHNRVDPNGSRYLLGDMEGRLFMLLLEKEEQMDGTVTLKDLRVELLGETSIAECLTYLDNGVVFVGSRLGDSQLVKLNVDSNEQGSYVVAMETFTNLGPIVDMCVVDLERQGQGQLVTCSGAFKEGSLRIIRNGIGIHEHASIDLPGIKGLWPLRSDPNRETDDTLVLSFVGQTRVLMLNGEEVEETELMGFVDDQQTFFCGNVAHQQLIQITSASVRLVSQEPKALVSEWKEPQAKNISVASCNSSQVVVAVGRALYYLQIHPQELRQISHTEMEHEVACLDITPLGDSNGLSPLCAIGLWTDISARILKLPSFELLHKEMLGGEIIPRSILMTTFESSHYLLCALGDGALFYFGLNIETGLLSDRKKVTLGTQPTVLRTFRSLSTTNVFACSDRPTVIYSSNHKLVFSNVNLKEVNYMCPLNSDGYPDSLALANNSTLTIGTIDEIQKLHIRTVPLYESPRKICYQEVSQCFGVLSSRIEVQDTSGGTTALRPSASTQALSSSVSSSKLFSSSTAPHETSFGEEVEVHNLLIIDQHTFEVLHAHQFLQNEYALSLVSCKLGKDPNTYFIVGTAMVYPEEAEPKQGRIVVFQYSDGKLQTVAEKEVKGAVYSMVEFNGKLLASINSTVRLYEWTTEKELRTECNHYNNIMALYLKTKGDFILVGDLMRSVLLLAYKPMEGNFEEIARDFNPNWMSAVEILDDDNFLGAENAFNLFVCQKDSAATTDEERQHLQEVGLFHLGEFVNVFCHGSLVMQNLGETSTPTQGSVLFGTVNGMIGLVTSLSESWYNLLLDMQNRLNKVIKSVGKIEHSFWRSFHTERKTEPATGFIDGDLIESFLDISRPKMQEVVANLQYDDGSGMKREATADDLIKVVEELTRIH
Method: This experiment was performed to evaluate the targeting property of the compounds. An HiBiT protein tag was added to the N-terminus of the endogenous GSPT1 protein of HEK293T cells by CRISPR gene editing technology, so as to construct a HiBiT-GSPT1 HEK293T stably transfected cell strain. HiBiT-GSPT1 HEK293T cells were cultured in DMEM containing 10% FBS and 1% PenStrep. When the cell confluency reached 80%-90%, the cells were digested with trypsin, pipetted into single cells, and resuspended in a corresponding culture medium to form a cell suspension. The cells were counted using Cell Countess (NanoEnTek, #Cat. EVE-MC2), and the cell viability was determined by trypan blue exclusion to ensure that the cell viability was above 90%. The cells were plated in a 384-well plate (Corning, #Cat. 3764) at 10,000 cells/40 µL of cell suspension per well, and cultured in an incubator at 37 °C with 5% CO2 overnight. The next day, the test compounds were added to the 384-well plate under conditions of 30 µM highest concentration, 5-fold serial dilution, and 1‰ DMSO. The plate was incubated in the incubator at 37 °C with 5% CO2 for another 24 h. Before measurement, the Nano-Glo HiBiT reagent was equilibrated to room temperature, the LgBiT protein was diluted with the Nano-Glo HiBiT Lytic buffer according to a dilution ratio of 1:100, and the Nano-Glo@HiBiT Lytic substrate was diluted to an appropriate volume according to a ratio of 1:50. After the cell culture plate was equilibrated at room temperature for 10 min, 40 µL of Nano-Glo HiBiT Lytic assay reagent was added to each well. The plate was shaken on a microplate shaker at a rotation speed of 300 rpm for 3 min in the dark. After the reaction was completed, the luminescencevalues were read on BMG PHERASTAR FS (BMG LRBTECH, Cat. No.: PHERAstar FSX), and the DC50 values were calculated using GraphPad Prism 8.0. Table 2. GSPT1 protein degradation

[1] = Metabolic stability in liver microsomes; details: Rat liver microsomes, after 60 min of incubation
Method: (§3) The final concentration of the substrate in the incubation system was 1 µM, and the incubation time was 60 min. Sampling was performed at 0 min, 5 min, 15 min, 30 min, and 60 min. The reaction was stopped with glacial acetonitrile containing an internal standard (testosterone-d3 at a concentration of 10 ng/mL). Verapamil was used as a positive control. […] The natural logarithm of the remaining percentage was subjected to linear fitting with time to determine the elimination rate constant (k).

[2] = Metabolic stability in liver microsomes; details: Dog liver microsomes, after 60 min of incubation
Method: as §3

in vitro [3] = details: human, microsomes
Method: as §3

[4] = Metabolic stability in liver microsomes; details: Monkey liver microsomes, after 60 min of incubation
Method: as §3

[5] = Metabolic stability in liver microsomes; details: Mouse liver microsomes, after 60 min of incubation
Method: as §3

in vitro [6] = details: monkey, microsomes
Method: as §3

in vitro [7] = details: rat, microsomes
Method: as §3

in vitro [8] = details: mouse, microsomes
Method: as §3

[9] = Metabolic stability in liver microsomes; details: Human liver microsomes, after 60 min of incubation
Method: as §3

in vitro [10] = details: dog, microsomes
Method: as §3

[11] = 96 h incubation, read-out: Cell inhibitory activity (IC50 values) SK-BR-3

## CNCCOCCc1ccc(NC(=O)NCc2ccc3c(c2)CN(C2CCC(=O)NC2=O)C3=O)cc1Cl (stereo not shown) [Smol006, reference compound]
SNU-5
  IC50: > 1000 nM
HCT-15
  IC50: > 1000 nM
AsPc-1
  IC50: 50 to 200 nM
NCI-H82
  IC50: 50 to 100 nM
SK-BR-3; [11]
  IC50: > 100 nM
SK-BR-3; read-out: SK-BR-3 IC50
  IC50: 32.3 nM
Romas
  IC50: > 100 nM
NCI-H929
  IC50: 50 to 100 nM
HL-60
  IC50: 10 to 50 nM
GSPT1 protein
  DC50: 274 nM

## CC(C)(C)OC(=O)N1CCCC(OCCCc2ccc(NC(=O)NCc3ccc4c(c3)CN(C3CCC(=O)NC3=O)C4=O)cc2Cl)C1 (stereo not shown) [Compound A19]
SK-BR-3; read-out: SK-BR-3 IC50
  IC50: 1.22 nM
GSPT1 protein
  DC50: 16 nM

## O=C1CCC(N2Cc3cc(CNC(=O)Nc4ccc(CCCOC5CCNCC5)c(Cl)c4)ccc3C2=O)C(=O)N1 (stereo not shown) [Compound B61]
[1]
  Parent drug remaining %: 71.0%
[2]
  Parent drug remaining %: 86.4%
In vitro [3]
  CLint scaled at 1 µM: 7.03 mL/min/kg
  CLint scaled at 1 h, 1 µM: 5.27 mL/min/kg
  half-life at 1 µM: 4.12 h
[4]
  Parent drug remaining %: 79.4%
NCI-H82
  IC50: 10 to 50 nM
SK-BR-3; [11]
  IC50: < 10 nM
Romas
  IC50: < 10 nM
NCI-H929
  IC50: < 10 nM
HL-60
  IC50: < 10 nM
[5]
  Parent drug remaining %: 79.8%
In vitro [6]
  CLint scaled at 1 µM: 13.7 mL/min/kg
  CLint scaled at 1 h, 1 µM: 10.5 mL/min/kg
  half-life at 1 µM: 2.47 h
In vitro [7]
  CLint scaled at 1 µM: 19.8 mL/min/kg
  CLint scaled at 1 h, 1 µM: 14.6 mL/min/kg
  half-life at 1 µM: 2.08 h
In vitro [8]
  CLint scaled at 1 µM: 32.2 mL/min/kg
  CLint scaled at 1 h, 1 µM: 23.7 mL/min/kg
  half-life at 1 µM: 2.9 h
[9]
  Parent drug remaining %: 83.4%
In vitro [10]
  CLint scaled at 1 µM: 11.8 mL/min/kg
  CLint scaled at 1 h, 1 µM: 8.55 mL/min/kg
  half-life at 1 µM: 4.88 h
